# Assay results taken from US12172975B2, “1H-indazole carboxamides as receptor-interacting protein kinase 1 inhibitors (RIPK1)” (BRISTOL-MYERS SQUIBB COMPANY, priority 2018, dated 2024).
# Like-named read-outs stand apart in the source and are kept apart here.
# Legend:
# [1] = tested on: MLKL phosphorylation in HT29-L23 human colorectal adenocarcinoma cells; assay: MLKL Phosphorylation High-Content Assay; type: cell-based; settings: 6 h, necroptosis induced with TNFα, SMAC mimetic and Z-VAD, read-out: pMLKL (IC50)
# How it was run: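 HT29-L23 cells were induced to necroptosis with TNFα (35 ng/mL), SMAC mimetic (700 nM) and Z-VAD (140 nM) for 6 h at 37 °C. Phospho-MLKL (S358) immunofluorescence was imaged and quantified per cell; maximal inhibition set by Nec-1s (6.25 μM), and IC50/Ymax from 4-parameter logistic fit.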
# [2] = target: His-GST-TVMV-hRIPK1 (1-324) (Homo sapiens (Human), UniProt Q13546); assay: RIPK1 HTRF Binding Assay; settings: read-out: RIPK1 HTRF (IC50); FRET probe displacement, 1 h at rt
# His-GST-TVMV-hRIPK1 (1-324), sequence (Q13546 1-324): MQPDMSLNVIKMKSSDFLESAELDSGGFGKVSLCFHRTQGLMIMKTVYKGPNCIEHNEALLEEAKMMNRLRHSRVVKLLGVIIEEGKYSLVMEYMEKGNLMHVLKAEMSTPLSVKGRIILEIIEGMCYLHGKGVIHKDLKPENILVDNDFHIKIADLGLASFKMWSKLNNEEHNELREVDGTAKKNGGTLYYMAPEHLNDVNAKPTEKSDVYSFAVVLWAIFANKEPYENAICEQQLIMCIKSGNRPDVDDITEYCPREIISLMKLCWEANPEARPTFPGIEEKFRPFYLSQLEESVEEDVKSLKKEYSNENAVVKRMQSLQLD
# Experimental: A solution was prepared containing 0.2 nM Anti GST-Tb (Cisbio, 61GSTTLB), 90.6 nM probe and 1 nM His-GST-TVMV-hRIPK1 (1-324) in FRET Buffer (20 mM HEPES, 10 mM MgCl2, 0.015% Brij-35, 4 mM DTT, 0.05 mg/mL BSA). Using Formulatrix Tempest, the detection antibody/enzyme/probe solution (2 mL) was dispensed into wells of a 1536 plate (Black Low Binding Polystyrene 1536 Plate (Corning, 3724)) containing 10 nL of compounds of interest at appropriate concentration in DMSO. The plate was incubated at rt for 1 h. FRET was measured using the EnVision plate reader (Excitation: 340 nm, Emission: 520 nm/495 nM). Total signal (0% inhibition) was calculated from wells containing 10 nL DMSO only.
SMILES,IC50 ([1]; Homo sapiens),IC50 [2],IC50 [1]
"CNC(=O)c1n[nH]c2cc(-c3cnc(OC)c(C(=O)NC45CC6CC(C4)CC(c4ccccc4)(C6)C5)c3)ccc12 [Example 95, 6-{6-methoxy-5-[(3-phenyl-adamantan-1-yl)carbamoyl]-pyridin-3-yl}-N-methyl-1H-indazole-3-carboxamide]",9.3 nM,17 nM,–
"CNC(=O)c1n[nH]c2cc(-c3cnc(OC)c(C(=O)NCC4CCCN4C(=O)C(C)(C)C(F)(F)F)c3)ccc12 (stereo not shown) [Example 96, 6-[6-methoxy-5-({[1-(3,3,3-trifIuoro-2,2-dimethylpropan-oyl)pyrrolidin-2-yl]methyl}-carbamoyl)pyridin-3-yl]-N-methyl-1H-indazole-3-carboxamide]",–,34 nM,4.6 nM
"CNC(=O)c1n[nH]c2cc(-c3cnc(OC)c(C(=O)NC4CCCC(C(=O)N5CCOCC5)C4)c3)ccc12 (stereo not shown) [Example 98, 6-(6-methoxy-5-{[3-(morpho-line-4-carbonyl)cyclohexyl]-carbamoyl}pyridin-3-yl)-N-methyl-1H-indazole-3-carbox-amide]",–,26 nM,46 nM
"CNC(=O)c1n[nH]c2cc(-c3cnc(OC)c(C(=O)NC4CCCC(C(=O)N5CCCC5)C4)c3)ccc12 (stereo not shown) [Example 99, 6-(6-methoxy-5-{[3-(pyrrol-idine-1-carbonyl)cyclohexyl]-carbamoyl}pyridin-3-yl)-N-methyl-1H-indazole-3-carbox-amide]",–,11 nM,14 nM
"CCCN(C)C(=O)C1CCCC(NC(=O)c2cc(-c3ccc4c(C(=O)NC)n[nH]c4c3)cnc2OC)C1 (stereo not shown) [Example 100, 6-[6-methoxy-5-({3-[methyl-(propyl)carbamoyl]cyclo-hexyl}carbamoyl)pyridin-3-yl]-N-methyl-1H-indazole-3-carboxamide]",63 nM,18 nM,–
"CNC(=O)c1n[nH]c2cc(-c3cnc(OC)c(C(=O)NC(C)c4cccc(C(F)(F)F)c4)c3)ccc12 (stereo not shown) [Example 101, 6-[6-methoxy-5-({1-[3-(tri-fluoromethyl)phenyl]ethyl}-carbamoyl)pyridin-3-yl]-N-methyl-1H-indazole-3-carbox-amide]",–,4.5 nM,19 nM
"CNC(=O)c1n[nH]c2cc(-c3cnc(OC)c(C(=O)NCc4ccc(F)c(C(F)(F)F)c4)c3)ccc12 [Example 104, 6-[5-({[4-fluoro-3-(trifluoro-methyl)phenyl]methyl}carbam-oyl)-6-methoxypyridin-3-yl]-N-methyl-1H-indazole-3-carboxamide]",–,40 nM,93 nM
"CNC(=O)c1n[nH]c2cc(-c3cnc(OC)c(C(=O)NCc4cccnc4OCC4CCC4)c3)ccc12 [Example 112, 6-[5-({[2-(cyclobutylmeth-oxy)pyridin-3-yl]methyl}-carbamoyl)-6-methoxypyridin-3-yl]-N-methyl-1H-indazole-3-carboxamide]",7.6 nM,4.8 nM,–
"CNC(=O)c1n[nH]c2cc(-c3cnc(OC)c(C(=O)NCc4ccccc4OC4CCCCC4)c3)ccc12 [Example 113, 6-[5-({[2-(cyclohexyloxy)-phenyl]methyl}carbamoyl)-6-methoxypyridin-3-yl]-N-methyl-1H-indazole-3-carbox-amide]",–,27 nM,9.7 nM
"CNC(=O)c1n[nH]c2cc(-c3cnc(OC)c(C(=O)NCc4cccc(OCC5CCC5)c4)c3)ccc12 [Example 115, 6-[5-({[3-(cyclobutylmeth-oxy)phenyl]methyl}carbam-oyl)-6-methoxypyridin-3-yl]-N-methyl-1H-indazole-3-carboxamide]",–,0.04 nM,100 nM
"CNC(=O)c1n[nH]c2cc(-c3cnc(OC)c(C(=O)NCC4CCCC4(C)C)c3)ccc12 (stereo not shown) [Example 116, 6-(5-{[(2,2-dimethylcyclo-pentyl)methyl]carbamoyl}-6-methoxypyridin-3-yl)-N-methyl-1H-indazole-3-carbox-amide]",–,9.6 nM,54 nM
